Key:
[1] = system: transient global cerebral ischemia in gerbils; assay: Neuroprotection from transient global cerebral ischemia in gerbils; assay type: in vivo, Mongolian gerbils; conditions: 50 mg/kg intraperitoneally prior to surgery; two experiments
Experimental: Adult male Mongolian gerbils weighing 60-80 g were intraperitoneally administered 50 mg/kg of Compound 2 prior to surgery to induce transient global cerebral ischemia. The gerbils were operated under anesthesia with 2% halthane in a gas mixture of 70% N2O and 30% O2, followed by maintenance at 1% halothane to surgically expose and clamp the carotid arteries for 5 minutes to prevent the blood flow to the brain. After 5 minutes, the clamps were removed and reperfusion occurred. The gerbils were evaluated for motility and spontaneous alteration in a Y maze test essentially as described in Gupta and Sharma, Biol. Pharm. Bull. 29(5) 957-961 (2006), and were decapitated 4 days after reperfusion for histological evaluation for the neuronal survival in the hippocampal CA-1 area.

[2] = system: mice under cytotoxic hypoxia; conditions: mouse, in vivo
in vivo = conditions: mouse
[3] = system: cardiac ischemia/reperfusion in rats; assay: Experimental cardiac ischemia/reperfusion in rats; assay type: in vivo; conditions: administered prior to ischemia/reperfusion
[4] = system: bacterial reverse mutation; assay: Standard bacterial reverse mutation assays
[5] = system: permanent middle cerebral artery occlusion (MCAO) in rats; assay: Functional recovery following permanent MCAO in rats (Example 1); assay type: in vivo, Sprague Dawley Rats; conditions: for Infarct Volume (%): day 28 after permanent MCAO, percentage of intact contralateral hemispheric volume, mean ± S.E.M.
Text: The purpose of this study was to evaluate the efficacy of arimoclomol and iroxanadine in enhancing neurological recovery in a model of permanent middle cerebral artery occlusion (MCAO) in rats. The permanent MCAO is a well accepted and considered to be a standard animal model for studying clinical aspects of stroke. (Stroke. 1999; 30:2752-2758.)
Forty male Sprague Dawley Rats, each weighing 300-400 g, which had been housed and handled for behavioral assessment for seven (7) days prior to surgery for acclimation purposes, were operated under anesthesia to create focal cerebral infarcts by permanent occlusion of the proximal right middle cerebral artery (MCA) according to modified Tamura model. Briefly, the rats were anesthetized with 2-3% halothane in the mixture of N2O:O2 (2:1), and were maintained with 1˜1.5% halothane in the mixture of N2O:O2 (2:1). The temporalis muscle was bisected and reflected through an incision made midway between the eye and the eardrum canal. The proximal MCA was exposed through a subtemporal craniectomy without removing the zygomatic arch and without transecting the facial nerve. […] Body temperature was maintained at 37.5° C.±0.5° C. throughout the entire procedure. Cefazolin (40 mg/kg; Baxter, Lot 06014.1, Exp. January 2009) was given i.p. one day before MCAO and just after MCAO to prevent infections.
The rats were randomly divided into 4 groups of 10 animals each. One group was given arimoclomol, p.o., starting at one hour after the occlusion at 200 mg/kg/d once daily for 3 days, then 50 mg/kg/d once daily for a total of 29 days. The second group was given iroxanadine using the same dosing regimen as for arimoclomol. The third group is a positive control group and is given intracistemally 1 μg (at 20 μg/ml, also containing 100 μg/ml of bovine serum albumin) beta-fibroblast growth factor (bFGF) one hour and one day (i.e. two administrations) after the occlusion. The fourth group is a negative control with administration of the vehicle only.
Animals were evaluated preoperation (day −1), then every 7 days after the operation (7, 14, 21, and 28 days) by forelimb and hindlimb placing tests and body swing test, which are widely accepted as standard tests indicative of functional recovery after a stroke model.
For the forelimb placing test, the examiner held the rat close to a tabletop and scored the rat's ability to place the forelimb on the tabletop in response to whisker, visual, tactile, or proprioceptive stimulation. Similarly, for the hindlimb placing test, the examiner assessed the rat's ability to place the hindlimb on the tabletop in response to tactile and proprioceptive stimulation. Separate sub-scores were obtained for each mode of sensory input (halfpoint designations possible), and added to give total scores (for the forelimb placing test: 0=normal, 12=maximally impaired; for the hindlimb placing test: 0=normal; 6=maximally impaired).
For the body swing test, the rat was held approximately one inch from the base of its tail. It was then elevated to an inch above a surface of a table. The rat was held in the vertical axis, defined as no more than […] to either the left or the right side. A swing was recorded whenever the rat moved its head out of the vertical axis to either side. The rat must return to the vertical position for the next swing to be counted. Thirty (30) total swings were counted. A normal rat typically has an equal number of swings to either side. Following focal ischemia, the rat tends to swing to the contralateral (left) side.
The behavior was evaluated by giving the score ranging in the parentheses after each test: • Forelimb placing test (0-12), consisting of whisker tactile placing (0-2); visual placing (forward, sideways) (0-4); tactile placing (dorsal, lateral) (0-4); and proprioceptive placing (0-2); • Hindlimb placing test (0-6), consisting of tactile placing (dorsal, lateral) (0-4); and proprioceptive placing (0-2). […]

[6] = treatment from 1 h after occlusion, up to 28 days

Compound	neuroprotection (motility, Y maze, neuronal survival in hippocampal CA-1) compared to control group [1]	survival time under cytotoxic hypoxia [2]	LD50 (in vivo) [mg/kg]	duration of ventricular arrhythmias [3]	overall survival [3]	mutagenicity [4]	Infarct Volume (%) [5] [%]	Body Swing Test, recovery compared to vehicle group [5, 6]	Forelimb Placing Test, recovery compared to vehicle group [5, 6]	Hindlimb Placing Test, recovery compared to vehicle group [5, 6]
CC(C)(C)NCC(O)CO/N=C(\Cl)c1cccc(C(F)(F)F)c1 (centres unmarked) [Compound 2, N-[3-(1,1-dimethylethyl)amino-2-hydroxypropoxy]-3-trifluoromethylbenzene-carboximidoyl chloride]	neuroprotective effects	significantly increased	~1000	significantly decreased	increased	not to be mutagenic				
bFGF: positive control, beta-fibroblast growth factor (bFGF) given intracisternally							23.1 ± 1.7	superior to the vehicle group	superior to the vehicle group	superior to the vehicle group
c1cncc(C2=NOCC(CN3CCCCC3)N2)c1 (centres unmarked) [iroxanadine, 5,6-dihydro-5(1-piperidinyl)-methyl-3-(3-pyridyl)-4H-1,2,4-oxadiazine]							21.8 ± 2.1			

Reference: patent publication US20090233917A1, “Stroke recovery” (priority 2006, published 2009)
